# Assays:
# [1] = system: Jurkat cells; assay: lactate excretion by Jurkat cells (enzymatic L-lactic acid kit); assay type: cell-based, human; details: preliminary test, 100 µM inhibitor, followed for 48 hours, versus DMSO control
# Protocol: The cells were incubated in 1 mL volume (24 well plates) at 5% CO2 and 37°C. The inhibitors were added in 100 µM concentration. As a control, equivalent amount of DMSO as used for the addition of inhibitors was supplemented to the medium. The tests started with 1×10^5 cells per mL. Extracellular lactate excreted by the Jurkat cells was measured in the supernatant of the growth medium after the cells were removed by centrifugation at 1500 rpm for 5 minutes. Lactate concentration was determined enzymatically using L-Lactatic acid kit (K-LATE, Megazyme, Ireland).
# Measurements of lactate excretion in the tumorigenic Jurkat cells and the cells treated with two selected inhibitors at different concentrations were repeated by more detailed measurements. The growth conditions were identical to those described in Experiment 2. No significant difference in lactate excretion could be observed by the treated and untreated cells during the initial stage of growth that lasted for approximately 12 hours. Later on lactate excretion by the Jurkat cells ceased in the presence of both inhibitors.
# [2] = target: T1, modified (47 kDa) 6-phosphofructo-1-kinase (PFK-M), sfPFK-M fragments (Homo sapiens, UniProt P08237); assay: in vitro inhibition of purified recombinant modified (cancer-specific) PFK-M fragments; details: native and modified PFK-M not distinguished
# T1 sequence (P08237 1-443 limits assumed): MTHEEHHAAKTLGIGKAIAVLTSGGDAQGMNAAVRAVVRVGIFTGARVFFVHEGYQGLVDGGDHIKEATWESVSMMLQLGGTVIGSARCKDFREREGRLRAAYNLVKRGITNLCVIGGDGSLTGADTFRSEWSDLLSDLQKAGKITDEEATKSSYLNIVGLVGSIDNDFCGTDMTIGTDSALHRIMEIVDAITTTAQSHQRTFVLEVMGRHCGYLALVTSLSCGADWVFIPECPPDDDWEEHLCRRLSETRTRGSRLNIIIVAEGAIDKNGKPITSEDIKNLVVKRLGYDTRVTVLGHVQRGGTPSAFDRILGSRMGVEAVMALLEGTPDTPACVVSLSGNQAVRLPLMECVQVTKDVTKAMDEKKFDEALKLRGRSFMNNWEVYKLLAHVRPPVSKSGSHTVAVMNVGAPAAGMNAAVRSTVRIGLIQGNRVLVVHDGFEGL
# Protocol: Initially, all compounds were tested in vitro for inhibition of the purified human native enzyme (85 kDa) and modified cancer-specific shorter fragments (47 kDa) of muscle type PFK-M, followed by measurements of the purified native enzyme (85 kDa) and shorter fragments (70 kDa) of liver type PFK-L isoform.
# Selected compounds were tested for in vitro inhibition of isolated recombinant human native and modified PFK-M enzymes.
# The yeast transformant encoding the native human PFK-M enzyme was designated as nPFKM strain while transformant encoding cancer specific shorter fragments was designated as sfPFKM strain. […] For the enzymatic measurements, all the substrates (F6P and ATP), auxiliary enzymes, NADH and inhibitors dissolved in DMSO were added first to the buffer with PEG. After thorough mixing of the buffer with all ingredients, the enzymatic reaction started by the insertion of the purified recombinant enzymes.
# [3] = system: MDA-MB-231 cells; assay: lactate excretion by MDA-MB-231 cells; assay type: cell-based; details: single addition; for lactate excretion by MDA-MB-231 cells: different concentrations
# Protocol: (§1) Preliminary in vivo tests were run by measuring lactate production by three different tumorigenic cell lines. Again, 100 µM concentrations of tested compounds have been added to the medium. For the experiment, the following tumorigenic cells lines originating from different tumours were tested: Caco-2 cells (Figure 10a), originating from colorectal adenoma carcinoma; COLO 829 cells (Figure 10b), isolated from melanoma; and MDA-MB-231 cells (Figure 10c) derived from metastatic phase of mammary/breast cancer. All adherent cell lines were grown in the RPMI 1640 GlutaMAX substrate (Thermo Fisher) supplemented with 10% FBS.
# Inhibitors No. 23, 29, 30 and 31 were tested for preventing lactate generation by the MDA-MB-231 cells. […] No significant discrepancies of total cell numbers were observed (Figure 14e) due to the different concentrations of inhibitors in the medium. […] The average percent of dead MDA-MB-231 cells in the control and in the presence of different concentrations of inhibitors were as follows: inh. 23 (2,98±0,2%), inh. 29 (3,37±0,39%), inh. 30 (3,4±0,21%), inh. 31 (6,87±0,44%). Additionally, cytotoxicity of inh. 3 (7,2±0,47%) and 9 (6,59±0,29%) for MDA-MB-231 cells were also determined. No dose dependent decrease of survival was observed by any inhibitor.
# (§2) A decrease in inhibitory effectiveness of some compounds was observed after certain period of time (Example 11). […] Therefore, the influence of selected inhibitors was assessed by sequential re-insertion of low concentrations of inhibitors at indicated time points. The inhibitors were first added to the medium 8 hours after the inoculation followed by periodically additions at 24-hour intervals (marked by arrows).
# In MDA-MB-231 calls similar results to those found in Caco-2 cells were observed. […] No significant cytostatic (Figure 17f) or cytotoxic effect of inhibitors could be detected after 92 hours of incubation despite of sequential addition of various concentrations of inhibitors. The following average percentages of dead cells were perceived in the medium without and with inh. 3 (2,05±0,18%), inh. 9 (1,85±0,05%), inh. 23 (2,20±0,15%), inh. 29 (1,54±0,16%) and inh. 30 (2,00±0,18%). No detrimental effects of increased inhibitors concentrations on cell deaths have been observed.
# [4] = system: Caco-2 cells; assay: cytotoxicity in Caco-2 cells (lactate dehydrogenase (LDH) kit); assay type: cell-based
# Protocol: (§3) Lactate generation, growth yield and survival under normal and inhibitory conditions of three different tumorigenic cells lines were determined in more detailed measurements. […] Cytotoxicity was measured by the Lactate dehydrogenase (LDH) kit (Roche).
# [5] = system: Caco-2 cells; assay: lactate excretion by Caco-2 cells; assay type: cell-based; details: single addition
# Protocol: as §1, with “Again, 100 µM concentrations of tested compounds have been added to the medium.” left out, “cancer.” for “cancer. All adherent cell lines were grown in the RPMI 1640 GlutaMAX substrate (Thermo Fisher) supplemented with 10% FBS.”
# as §3
# Therefore, the influence of selected inhibitors was assessed by sequential re-insertion of low concentrations of inhibitors at indicated time points. The inhibitors were first added to the medium 8 hours after the inoculation followed by periodically additions at 24-hour intervals (marked by arrows).
# [6] = system: MDA-MB-231 cells; assay: cytotoxicity in MDA-MB-231 cells (LDH kit); assay type: cell-based; details: for average percent of dead MDA-MB-231 cells: single addition, average over control and different concentrations of inhibitor
# Protocol: as §3
# Inhibitors No. 23, 29, 30 and 31 were tested for preventing lactate generation by the MDA-MB-231 cells.
# [7] = system: COLO 829 cells; assay: cytotoxicity in COLO 829 cells (LDH kit); assay type: cell-based; details: for average percent of dead COLO 829 cells: single addition, average over control and different concentrations of inhibitor
# Protocol: as §3
# [8] = system: COLO 829 cells; assay: lactate excretion by COLO 829 cells; assay type: cell-based; details: for lactate excretion by COLO 829 cells: single addition, different concentrations
# Protocol: as §1
# On the basis of preliminary results, inhibitors No. 23, 29, 30 and 31 were tested on COLO 829 cells. […] No significant discrepancies of total cell numbers in respect to the control were observed due to the different concentrations of inhibitors in the medium (Figure 13e). The average percent of dead COLO 829 cells in the control and in the presence of different concentrations of inhibitors were as follows: inh. 23 (9,23±0,6%), inh. 29 (9,31±0,73%), inh. 30 (8,27±0,49%), inh. 31 (8,26±0,38%). Additionally, cytotoxicity of inh. 3 (5,01±1,08%) and 9 (3,65±0,78%) for COLO 829 cells were also determined. No dose dependent decrease of survival was observed by any inhibitor.
# as §2
# No significant cytostatic (Figure 16f) of cytotoxic effect of inhibitors could be detected after 92 hours of incubation despite of sequential addition of various concentrations of inhibitors. The following average percentages of dead cells were perceived in the medium without and media with inh. 3 (1,95±0,15%) inh. 9 (1,70±0,14%), inh. 23 (2,40±0,09%), inh. 29 (1,66±0,25%) and inh. 30 (1,38±0,18%). No detrimental effects of increased inhibitors concentrations on cell deaths have been observed.
# [9] = sequential addition at 24-hour intervals, 92 hours, average over medium without and with inhibitor
Structure (SMILES),lactate excretion by the Jurkat cells [1],in vitro PFK-M inhibition [2],lactate excretion by MDA-MB-231 cells [3],average percent of dead MDA-MB-231 cells [6],average percent of dead COLO 829 cells [7],lactate excretion by COLO 829 cells [8],other results
"Cc1nnc(COC(=O)c2ccc3noc(-c4ccccc4)c3c2)o1 [Inhibitor No. 8, (5-methyl-1 ,3,4-oxadiazol-2-yl)methyl 3-phenyl-2,1-benzoxazole-5-carboxylate]",Less efficient reduction of lactate overflow,no in vitro PFK-M inhibition could be detected,–,–,–,–,–
"CNC(=O)c1nc(CN2CCc3onc(-c4cccc(F)c4)c3C2)no1 [Inhibitor No. 11, 3-{[3-(3-fluorophenyl)-6,7-dihydroisoxazolo[4,5-c]pyridin-5(4H)-yl]methyl}-N-methyl-1,2,4-oxadiazole-5-carboxamide]",Less efficient reduction of lactate overflow,no in vitro PFK-M inhibition could be detected,–,–,–,–,–
"CNC(=O)c1nc(CN2CCc3onc(-c4ccccc4F)c3C2)no1 [Inhibitor No. 13, 3-{[3-(2-fluorophenyl)-6,7-dihydroisoxazolo[4,5-c]pyridin-5(4H)-yl]methyl}-N-methyl-1,2,4-oxadiazole-5-carboxamide]",Less efficient reduction of lactate overflow,no in vitro PFK-M inhibition could be detected,–,–,–,–,–
Cc1ccc(-c2cccc(-c3ccn(Cc4nnc(C)o4)n3)c2)nn1 [Inhibitor No. 14],Less efficient reduction of lactate overflow,no in vitro PFK-M inhibition could be detected,–,–,–,–,–
"CS(=O)(=O)Nc1nnc(NC(=O)c2ccc3[nH]c4c(c3c2)CCCC4)s1 [Inhibitor No. 23, N-[5-(methanesulfonamido)-1,3,4-thiadiazol-2-yl]-6,7,8,9-tetrahydro-5H-carbazole-3-carboxamide]",–,–,strong inhibition,"2,98±0,2%","9,23±0,6%",Slightly weaker inhibition,"period of strong inhibition of lactate generation, MDA-MB-231 ([3]; later on lactate generation re-appeared): 42 h; average percentages of dead cells, Caco-2, sequential re-insertion [4, 9]: 4,05±0,54%; average percent of dead cells, Caco-2 ([4]; single addition, average over control and different concentrations of inhibitor): 3,35±0,08%; period of strong inhibition of lactate generation, Caco-2 ([5]; 20-80 µM, later the inhibitory effect was lost): 36 h; lactate generation by Caco-2 cells ([5]; different concentrations (20-80 µM)): strong inhibition of lactate generation; average percentages of dead cells, MDA-MB-231, sequential re-insertion [6, 9]: 2,20±0,15%; average percentages of dead cells, COLO 829, sequential re-insertion [7, 9]: 2,40±0,09%; concentration at which comprehensive inhibition of lactate formation was detected, COLO 829 ([8]; sequential re-insertion at 24-hour intervals): ≥ 20 µM"
"O=C(Nc1nnc(-c2ccno2)o1)[C@H]1COc2ccccc2O1 [Inhibitor No. 31, (2R)-N-(5-isoxazol-5-yl-1,3,4-oxadiazol-2-yl)-2,3-dihydro-1,4-benzodioxine-2-carboxamide]",–,–,dose dependent inhibition of lactate excretion,"6,87±0,44%","8,26±0,38%",some inhibition,–

# From patent EP3833345B1, “SMALL MOLECULE-INHIBITORS OF 6-PHOSPHOFRUCTO-1-KINASE FOR REDUCING LACTATE GENERATION BY CANCER CELLS” (Kemijski Institut, priority 2018, dated 2020)
